Measurements reported in patent US10344060B2 (priority 2013, dated 2019).

target: hNav1.7 (Homo sapiens, UniProt Q15858); assay: cell-based; type: cell-based; conditions: ratio of PX tonic IC50 values; Table 11
Sequence (Q15858 whole entry): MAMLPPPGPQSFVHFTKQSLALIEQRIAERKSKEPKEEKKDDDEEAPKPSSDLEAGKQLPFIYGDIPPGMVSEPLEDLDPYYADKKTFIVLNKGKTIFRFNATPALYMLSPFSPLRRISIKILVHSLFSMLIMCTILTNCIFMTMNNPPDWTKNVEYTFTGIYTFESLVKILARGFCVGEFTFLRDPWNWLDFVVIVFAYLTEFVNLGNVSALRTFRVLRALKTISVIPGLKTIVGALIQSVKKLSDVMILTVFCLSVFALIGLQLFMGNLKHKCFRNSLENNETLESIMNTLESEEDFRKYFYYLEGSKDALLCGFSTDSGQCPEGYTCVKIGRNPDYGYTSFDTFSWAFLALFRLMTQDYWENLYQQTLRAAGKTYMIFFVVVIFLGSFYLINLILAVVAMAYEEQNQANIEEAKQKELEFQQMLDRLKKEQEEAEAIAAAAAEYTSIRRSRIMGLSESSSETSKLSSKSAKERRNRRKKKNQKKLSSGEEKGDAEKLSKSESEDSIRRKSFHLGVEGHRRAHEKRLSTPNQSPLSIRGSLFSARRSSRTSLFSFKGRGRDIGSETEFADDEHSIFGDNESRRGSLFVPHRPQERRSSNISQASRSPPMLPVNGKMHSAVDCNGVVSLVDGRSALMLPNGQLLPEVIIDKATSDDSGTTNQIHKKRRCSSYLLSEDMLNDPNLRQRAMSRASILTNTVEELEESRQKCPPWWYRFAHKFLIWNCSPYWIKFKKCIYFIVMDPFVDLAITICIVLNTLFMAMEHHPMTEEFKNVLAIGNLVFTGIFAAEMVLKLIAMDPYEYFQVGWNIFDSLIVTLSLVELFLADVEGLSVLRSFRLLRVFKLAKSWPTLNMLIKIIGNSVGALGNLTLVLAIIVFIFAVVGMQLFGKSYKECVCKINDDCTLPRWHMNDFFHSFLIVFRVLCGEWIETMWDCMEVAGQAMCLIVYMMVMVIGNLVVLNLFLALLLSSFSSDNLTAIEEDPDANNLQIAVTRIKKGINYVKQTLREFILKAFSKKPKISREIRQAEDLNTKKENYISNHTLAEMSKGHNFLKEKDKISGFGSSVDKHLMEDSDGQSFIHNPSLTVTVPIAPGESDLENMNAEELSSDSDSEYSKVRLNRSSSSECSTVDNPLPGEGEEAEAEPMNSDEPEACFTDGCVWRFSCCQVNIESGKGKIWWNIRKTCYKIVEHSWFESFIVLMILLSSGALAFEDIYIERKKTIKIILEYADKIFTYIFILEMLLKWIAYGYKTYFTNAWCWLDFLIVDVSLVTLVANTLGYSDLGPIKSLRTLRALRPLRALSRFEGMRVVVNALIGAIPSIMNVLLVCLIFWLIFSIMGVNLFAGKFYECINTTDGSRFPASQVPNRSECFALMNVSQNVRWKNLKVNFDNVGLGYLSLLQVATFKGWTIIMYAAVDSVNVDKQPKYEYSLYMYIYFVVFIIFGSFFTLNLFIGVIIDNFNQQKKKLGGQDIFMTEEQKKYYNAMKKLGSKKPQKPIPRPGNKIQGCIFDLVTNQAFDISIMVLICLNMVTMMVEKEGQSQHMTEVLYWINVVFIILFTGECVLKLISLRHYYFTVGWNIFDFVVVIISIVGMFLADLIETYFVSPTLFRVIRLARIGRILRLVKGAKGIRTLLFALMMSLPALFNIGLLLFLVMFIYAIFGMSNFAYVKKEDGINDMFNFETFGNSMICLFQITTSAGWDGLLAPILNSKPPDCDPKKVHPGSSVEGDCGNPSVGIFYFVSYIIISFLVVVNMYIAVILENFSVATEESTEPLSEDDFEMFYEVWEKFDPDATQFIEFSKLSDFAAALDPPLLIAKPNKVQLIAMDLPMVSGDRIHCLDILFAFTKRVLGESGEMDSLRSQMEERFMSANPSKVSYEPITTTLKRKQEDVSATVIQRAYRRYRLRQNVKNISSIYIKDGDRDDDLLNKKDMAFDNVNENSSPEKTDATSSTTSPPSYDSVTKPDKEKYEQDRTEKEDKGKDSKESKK

Point of comparison: `CCCC[C@@H]1NC(=O)[C@H](Cc2c[nH]c3ccccc23)NC(=O)[C@H](CCCCN)NC(=O)[C@H](CCC(N)=O)NC(=O)[C@@H](NC(=O)[C@H](Cc2ccc(O)cc2)NC(=O)[C@@H](N)CCCCNC(=O)CCOCCOCCOCCOCCOCCOCCOCCOCCOCCOCCOCCOCCN)CSSC[C@@H]2NC(=O)[C@@H]3CSSC[C@@H](C(=O)N[C@@H](CCCNC(=N)N)C(=O)N[C@@H](CCCCN)C(=O)N[C@@H](CCC(=O)O)C(=O)N[C@@H](Cc4c[nH]c5ccccc45)C(N)=O)NC(=O)[C@H](Cc4c[nH]c5ccccc45)NC(=O)[C@H](CC(C)C)NC(=O)[C@H](CCCCN)NC(=O)[C@H](CSSC[C@H](NC(=O)[C@H]([C@@H](C)O)NC(=O)[C@H](Cc4c[nH]c5ccccc45)NC1=O)C(=O)N[C@@H](CC(=O)O)C(=O)N[C@@H](CO)C(=O)N[C@@H](CCCCN)C(=O)N[C@@H](CCCNC(=N)N)C(=O)N[C@@H](C)C(=O)N3)NC(=O)[C@H](CCCNC(=N)N)NC(=O)[C@H](CC(C)C)NC(=O)CNC(=O)[C@H](CCC(=O)O)NC2=O` [compound 458], Nav1.4/Nav1.7 38. Against it:
- CCCC[C@@H]1NC(=O)[C@H](Cc2c[nH]c3ccccc23)NC(=O)[C@H](CCCCN)NC(=O)[C@H](CCC(N)=O)NC(=O)[C@@H](NC(=O)[C@H](Cc2ccc(O)cc2)NC(=O)[C@@H](N)CC#N)CSSC[C@@H]2NC(=O)[C@@H]3CSSC[C@@H](C(=O)N[C@@H](CCCNC(=N)N)C(=O)N[C@@H](CCCCN)C(=O)N[C@@H](CCC(=O)O)C(=O)N[C@H](C(N)=O)[C@@H](C)CC)NC(=O)[C@H](Cc4c[nH]c5ccccc45)NC(=O)[C@H](CC(C)C)NC(=O)[C@H](CCCCN)NC(=O)[C@H](CSSC[C@H](NC(=O)[C@H]([C@@H](C)O)NC(=O)[C@H](Cc4c[nH]c5ccccc45)NC1=O)C(=O)N[C@@H](CC(=O)O)C(=O)N[C@@H](CO)C(=O)N[C@@H](CCCCN)C(=O)N[C@@H](CCCNC(=N)N)C(=O)N[C@@H](CCCCNC(=O)CCOCCOCCOCCOCCOCCOCCOCCOCCOCCOCCOCCOCCN)C(=O)N3)NC(=O)[C@H](CCCNC(=N)N)NC(=O)[C@H](CC(C)C)NC(=O)CNC(=O)[C@H](CCC(=O)O)NC2=O [compound 455] — higher, 86
- CCCC[C@@H]1NC(=O)[C@H](Cc2c[nH]c3ccccc23)NC(=O)[C@H](CCCCN)NC(=O)[C@H](CCC(N)=O)NC(=O)[C@@H](NC(=O)[C@H](Cc2ccc(O)cc2)NC(=O)[C@@H](N)CC#N)CSSC[C@@H]2NC(=O)[C@@H]3CSSC[C@@H](C(=O)N[C@@H](CCCNC(=N)N)C(=O)N[C@@H](CCCCN)C(=O)N[C@@H](CCC(=O)O)C(=O)N[C@H](C(N)=O)[C@@H](C)CC)NC(=O)[C@H](Cc4c[nH]c5ccccc45)NC(=O)[C@H](CC(C)C)NC(=O)[C@H](CCCCN)NC(=O)[C@H](CSSC[C@H](NC(=O)[C@H]([C@@H](C)O)NC(=O)[C@H](Cc4c[nH]c5ccccc45)NC1=O)C(=O)N[C@@H](CC(=O)O)C(=O)N[C@@H](CO)C(=O)N[C@@H](CCCCN)C(=O)N[C@@H](CCCNC(=N)N)C(=O)N[C@@H](C)C(=O)N3)NC(=O)[C@H](CCCNC(=N)N)NC(=O)[C@H](CC(C)C)NC(=O)CNC(=O)[C@H](CCCCNC(=O)CCOCCOCCOCCOCCOCCOCCOCCOCCOCCOCCOCCOCCN)NC2=O [compound 456] — higher, 68
- CCCC[C@@H]1NC(=O)[C@H](Cc2c[nH]c3ccccc23)NC(=O)[C@H](CCCCN)NC(=O)[C@H](CCC(N)=O)NC(=O)[C@@H](NC(=O)[C@H](Cc2ccc(O)cc2)NC(=O)[C@@H](N)CC#N)CSSC[C@@H]2NC(=O)[C@@H]3CSSC[C@@H](C(=O)N[C@@H](CCCNC(=N)N)C(=O)N[C@@H](CCCCN)C(=O)N[C@@H](CCC(=O)O)C(=O)N[C@@H](Cc4c[nH]c5ccccc45)C(N)=O)NC(=O)[C@H](Cc4c[nH]c5ccccc45)NC(=O)[C@H](CC(C)C)NC(=O)[C@H](CCCCN)NC(=O)[C@H](CSSC[C@H](NC(=O)[C@H]([C@@H](C)O)NC(=O)[C@H](Cc4c[nH]c5ccccc45)NC1=O)C(=O)N[C@@H](CC(=O)O)C(=O)N[C@@H](CO)C(=O)N[C@@H](CCCCN)C(=O)N[C@@H](CCCNC(=N)N)C(=O)N[C@@H](C)C(=O)N3)NC(=O)[C@H](CCCNC(=N)N)NC(=O)[C@H](CC(C)C)NC(=O)CNC(=O)[C@H](CCCCNC(=O)CCOCCOCCOCCOCCOCCOCCOCCOCCOCCOCCOCCOCCN)NC2=O [compound 459] — lower, 27
- CCCC[C@@H]1NC(=O)[C@H](Cc2c[nH]c3ccccc23)NC(=O)[C@H](CCCCN)NC(=O)[C@H](CCC(N)=O)NC(=O)[C@@H](NC(=O)[C@H](Cc2ccc(O)cc2)NC(=O)[C@@H](N)CC(C)C)CSSC[C@@H]2NC(=O)[C@@H]3CSSC[C@@H](C(=O)N[C@@H](CCCNC(=N)N)C(=O)N[C@@H](CCCCN)C(=O)N[C@@H](CCC(=O)O)C(=O)N[C@H](C(N)=O)[C@@H](C)CC)NC(=O)[C@H](Cc4c[nH]c5ccccc45)NC(=O)[C@H](CC(C)C)NC(=O)[C@H](CCCCN)NC(=O)[C@H](CSSC[C@H](NC(=O)[C@H]([C@@H](C)O)NC(=O)[C@H](Cc4c[nH]c5ccccc45)NC1=O)C(=O)N[C@@H](CC(=O)O)C(=O)N[C@@H](CO)C(=O)N[C@@H](CCCCN)C(=O)N[C@@H](CCCNC(=N)N)C(=O)N[C@@H](C)C(=O)N3)NC(=O)[C@H](CCCNC(=N)N)NC(=O)[C@H](CC(C)C)NC(=O)CNC(=O)[C@H](CCCCNC(=O)CCOCCOCCOCCOCCOCCOCCOCCOCCOCCOCCOCCOCCN)NC2=O [compound 462] — lower, 20
- CCCC[C@@H]1NC(=O)[C@H](Cc2c[nH]c3ccccc23)NC(=O)[C@H](CCCCN)NC(=O)[C@H](CCC(N)=O)NC(=O)[C@@H](NC(=O)[C@H](Cc2ccc(O)cc2)NC(=O)[C@H](N)CC(C)C)CSSC[C@@H]2NC(=O)[C@@H]3CSSC[C@@H](C(=O)N[C@@H](CCCNC(=N)N)C(=O)N[C@@H](CCCCN)C(=O)N[C@@H](CCC(=O)O)C(=O)N[C@H](C(N)=O)[C@@H](C)CC)NC(=O)[C@H](Cc4c[nH]c5ccccc45)NC(=O)[C@H](CC(C)C)NC(=O)[C@H](CCCCN)NC(=O)[C@H](CSSC[C@H](NC(=O)[C@H]([C@@H](C)O)NC(=O)[C@H](Cc4c[nH]c5ccccc45)NC1=O)C(=O)N[C@@H](CC(=O)O)C(=O)N[C@@H](CO)C(=O)N[C@@H](CCCCN)C(=O)N[C@@H](CCCNC(=N)N)C(=O)N[C@@H](C)C(=O)N3)NC(=O)[C@H](CCCNC(=N)N)NC(=O)[C@H](CC(C)C)NC(=O)CNC(=O)[C@H](CCCCNC(=O)CCOCCOCCOCCOCCOCCOCCOCCOCCOCCOCCOCCOCCN)NC2=O [compound 464] — lower, 18
- CCCC[C@@H]1NC(=O)[C@H](Cc2c[nH]c3ccccc23)NC(=O)[C@H](CCCCN)NC(=O)[C@H](CCC(N)=O)NC(=O)[C@@H](NC(=O)[C@H](Cc2ccc(O)cc2)NC(=O)[C@H](CC(C)C)NC)CSSC[C@@H]2NC(=O)[C@@H]3CSSC[C@@H](C(=O)N[C@@H](CCCNC(=N)N)C(=O)N[C@@H](CCCCN)C(=O)N[C@@H](CCC(=O)O)C(=O)N[C@H](C(N)=O)[C@@H](C)CC)NC(=O)[C@H](Cc4c[nH]c5ccccc45)NC(=O)[C@H](CC(C)C)NC(=O)[C@H](CCCCN)NC(=O)[C@H](CSSC[C@H](NC(=O)[C@H]([C@@H](C)O)NC(=O)[C@H](Cc4c[nH]c5ccccc45)NC1=O)C(=O)N[C@@H](CC(=O)O)C(=O)N[C@@H](CO)C(=O)N[C@@H](CCCCN)C(=O)N[C@@H](CCCNC(=N)N)C(=O)N[C@@H](C)C(=O)N3)NC(=O)[C@H](CCCNC(=N)N)NC(=O)[C@H](CC(C)C)NC(=O)CNC(=O)[C@H](CCCCNC(=O)CCOCCOCCOCCOCCOCCOCCOCCOCCOCCOCCOCCOCCN)NC2=O [compound 466] — lower, 19

Point of comparison: `CCCC[C@@H]1NC(=O)[C@H](Cc2c[nH]c3ccccc23)NC(=O)[C@H](CCCCN)NC(=O)[C@H](CCC(N)=O)NC(=O)[C@@H](NC(=O)[C@H](Cc2ccc(O)cc2)NC(=O)[C@@H](N)CC#N)CSSC[C@@H]2NC(=O)[C@@H]3CSSC[C@@H](C(=O)N[C@@H](CCCNC(=N)N)C(=O)N[C@@H](CCCCN)C(=O)N[C@@H](CCC(=O)O)C(=O)N[C@H](C(N)=O)[C@@H](C)CC)NC(=O)[C@H](Cc4c[nH]c5ccccc45)NC(=O)[C@H](CC(C)C)NC(=O)[C@H](CCCCN)NC(=O)[C@H](CSSC[C@H](NC(=O)[C@H]([C@@H](C)O)NC(=O)[C@H](Cc4c[nH]c5ccccc45)NC1=O)C(=O)N[C@@H](CC(=O)O)C(=O)N[C@@H](CO)C(=O)N[C@@H](CCCCN)C(=O)N[C@@H](CCCNC(=N)N)C(=O)N[C@@H](C)C(=O)N3)NC(=O)[C@H](CCCNC(=N)N)NC(=O)[C@H](CC(C)C)NC(=O)CNC(=O)[C@H](CCCCNC(=O)CCOCCOCCOCCOCCOCCOCCOCCOCCOCCOCCOCCOCCN)NC2=O` [compound 456], Nav1.5/Nav1.7 967. Against it:
- CCCC[C@@H]1NC(=O)[C@H](Cc2c[nH]c3ccccc23)NC(=O)[C@H](CCCCN)NC(=O)[C@H](CCC(N)=O)NC(=O)[C@@H](NC(=O)[C@H](Cc2ccc(O)cc2)NC(=O)[C@@H](N)CC#N)CSSC[C@@H]2NC(=O)[C@@H]3CSSC[C@@H](C(=O)N[C@@H](CCCNC(=N)N)C(=O)N[C@@H](CCCCN)C(=O)N[C@@H](CCC(=O)O)C(=O)N[C@H](C(N)=O)[C@@H](C)CC)NC(=O)[C@H](Cc4c[nH]c5ccccc45)NC(=O)[C@H](CC(C)C)NC(=O)[C@H](CCCCN)NC(=O)[C@H](CSSC[C@H](NC(=O)[C@H]([C@@H](C)O)NC(=O)[C@H](Cc4c[nH]c5ccccc45)NC1=O)C(=O)N[C@@H](CC(=O)O)C(=O)N[C@@H](CO)C(=O)N[C@@H](CCCCN)C(=O)N[C@@H](CCCNC(=N)N)C(=O)N[C@@H](CCCCNC(=O)CCOCCOCCOCCOCCOCCOCCOCCOCCOCCOCCOCCOCCN)C(=O)N3)NC(=O)[C@H](CCCNC(=N)N)NC(=O)[C@H](CC(C)C)NC(=O)CNC(=O)[C@H](CCC(=O)O)NC2=O [compound 455] — higher, 1101
- CCCC[C@@H]1NC(=O)[C@H](Cc2c[nH]c3ccccc23)NC(=O)[C@H](CCCCN)NC(=O)[C@H](CCC(N)=O)NC(=O)[C@@H](NC(=O)[C@H](Cc2ccc(O)cc2)NC(=O)[C@@H](N)CCCCNC(=O)CCOCCOCCOCCOCCOCCOCCOCCOCCOCCOCCOCCOCCN)CSSC[C@@H]2NC(=O)[C@@H]3CSSC[C@@H](C(=O)N[C@@H](CCCNC(=N)N)C(=O)N[C@@H](CCCCN)C(=O)N[C@@H](CCC(=O)O)C(=O)N[C@@H](Cc4c[nH]c5ccccc45)C(N)=O)NC(=O)[C@H](Cc4c[nH]c5ccccc45)NC(=O)[C@H](CC(C)C)NC(=O)[C@H](CCCCN)NC(=O)[C@H](CSSC[C@H](NC(=O)[C@H]([C@@H](C)O)NC(=O)[C@H](Cc4c[nH]c5ccccc45)NC1=O)C(=O)N[C@@H](CC(=O)O)C(=O)N[C@@H](CO)C(=O)N[C@@H](CCCCN)C(=O)N[C@@H](CCCNC(=N)N)C(=O)N[C@@H](C)C(=O)N3)NC(=O)[C@H](CCCNC(=N)N)NC(=O)[C@H](CC(C)C)NC(=O)CNC(=O)[C@H](CCC(=O)O)NC2=O [compound 458] — lower, 202
